Measured values taken from US8841257B2, “Inhibitors of STAT3 and uses thereof” (Board of Regents, The University of Texas System, priority 2009, dated 2014).

Key:
STAT1 = molecular target: T1, STAT1 (Homo sapiens, UniProt P42224); assay: IFNγ-stimulated STAT1 phosphorylation in MDA-MB-468 cells; assay type: cell-based; parameters: host or cells: MDA-MB-468 breast tumor cells; conditions: for inhibition of Stat1 phosphorylation compared with Stat3 phosphorylation: 1.5 hr prodrug, then interferonγ 25 ng/mL 30 min; for fold less potent at inhibiting STAT1 than STAT3: MDA-MB-468 cells
T1 sequence (P42224 1-750): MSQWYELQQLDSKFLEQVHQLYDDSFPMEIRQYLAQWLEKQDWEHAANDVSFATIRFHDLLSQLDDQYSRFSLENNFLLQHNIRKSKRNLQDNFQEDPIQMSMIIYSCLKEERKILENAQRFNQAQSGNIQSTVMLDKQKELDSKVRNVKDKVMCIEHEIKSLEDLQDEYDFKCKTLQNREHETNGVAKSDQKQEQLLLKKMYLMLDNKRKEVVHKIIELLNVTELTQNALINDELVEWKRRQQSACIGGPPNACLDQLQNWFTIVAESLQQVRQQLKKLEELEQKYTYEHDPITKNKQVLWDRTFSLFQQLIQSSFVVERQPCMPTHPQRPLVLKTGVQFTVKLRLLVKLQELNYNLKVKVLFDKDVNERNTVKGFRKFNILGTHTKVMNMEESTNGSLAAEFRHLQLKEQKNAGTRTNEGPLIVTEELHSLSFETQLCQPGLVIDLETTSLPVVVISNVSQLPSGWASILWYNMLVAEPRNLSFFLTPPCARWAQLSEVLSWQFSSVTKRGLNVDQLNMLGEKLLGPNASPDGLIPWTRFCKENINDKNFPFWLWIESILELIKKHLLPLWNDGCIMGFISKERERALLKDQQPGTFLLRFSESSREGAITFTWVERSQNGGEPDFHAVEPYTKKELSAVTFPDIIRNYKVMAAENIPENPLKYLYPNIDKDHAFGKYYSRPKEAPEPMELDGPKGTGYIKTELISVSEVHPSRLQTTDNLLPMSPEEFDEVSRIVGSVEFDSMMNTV
Procedure: Effect of Prodrug on the phosphorylation of STAT1 in MDA-MB-468 breast tumor cells. MDA-MB-468 cells were prepared as above. Prodrugs were prepared as 10 mM stock solutions in DMSO and aliquots were added to the culture media to give the correct final concentrations. After 1.5 hr interferonγ was added at 25 ng/mL. After 30 minutes cells were collected and lysed and proteins were separated by PAGE and transferred to PVDF filters as above. Filters were probed for phosphoTyr701 Stat 1 and total Stat1 using appropriate antibodies and similar detection procedures to those used for Stat3.

[1] = system: non-small cell lung cancer cell lines; assay: Lung tumor cell viability assay, NSCLC cell lines; assay type: cell-based; conditions: 0.25-5.0 μM in DMSO; 72 h
Procedure: Lung Tumor Cell Viability Assay: H1819, H1299 and H827 lung tumor cells were seeded in 6-well plates at a density of 6×10^4, 4×10^4 and 5×10^4 cells/well, respectively. Prodrugs were dissolved in DMSO to make a stock concentration of 500 μM. The following day the cells were treated either with DMSO alone or with 0.25 μM, 0.5 μM, 1.0 μM, 2.5 μM and 5.0 μM of the compounds from Example 1, Example 16, and Example 22. Seventy two h after treatment with the drug the cells were subjected to cell viability assay using trypan blue. […] Cells were plated and after 24 hr were treated with the compound of Example 16 in DMSO. After 72 hr, cells were counted. Note that vertical axes are different for each plot.

STAT3 [2] = molecular target: T2, STAT3 (Homo sapiens, UniProt P40763); assay: EGF-stimulated STAT3 phosphorylation in MDA-MB-468 cells; assay type: cell-based; parameters: host or cells: MDA-MB-468 breast tumor cells; conditions: 1.5 hr prodrug, then EGF 100 ng/mL 30 min
Procedure: (§1) Effect of prodrug on the phosphorylation of STAT3, STAT5 and Akt in response to Epidermal Growth Factor stimulation. MDA-MB-468 cells were prepared as above. Prodrugs were prepared as 10 mM stock solutions in DMSO and aliquots were added to the culture media to give the correct final concentrations. After 1.5 hr EGF was added at 100 ng/mL. After 30 minutes cells were collected and lysed and proteins were separated by PAGE and transferred to three PVDF filters as above. The first filter was blocked with 5% bovine serum albumin and probed for total and phosphoStat3 as above. The second filter was probed for phosphoSer473Akt and total Akt using appropriate antibodies and similar detection procedures to those used for STAT3. The third filter was probed for phosphoTyr699 Stat5 and total STAT5 using appropriate antibodies and similar detection procedures to those used for STAT3.

STAT3 [3] = molecular target: T2, STAT3; assay: Inhibition of Stat3 tyrosine705 phosphorylation in MDA-MB-468 cells; assay type: cell-based; parameters: host or cells: MDA-MB-468 breast tumor cells; conditions: 2 h; for inhibition of Tyr705 phosphorylation of Stat3 (potency in words): prodrug in DMSO
Procedure: Inhibition of Stat3 tyrosine705 phosphorylation in MDA-MB-468 cells. MDA-MB-468 breast tumor cells (0.4×10^6) were plated onto 35 mm culture dishes and were allowed to grow overnight. Prodrugs were prepared as 10 mM stock solutions in DMSO and aliquots were added to the culture media to give the correct final concentrations. After 2 h the cells were washed with ice cold phosphate buffered saline. Washed cells were treated with lysis buffer (50 mM Hepes, pH 7.4, 150 mM NaCl, 1.5 mM MgCl2, 1 mM EGTA, 100 mM NaF, 10 mM sodium pyrophosphate, 10% glycerol, 1% Triton X-100, 1 mM PMSF, 1 mM Na3VO4, 10 μg/mL leupeptin and 10 μg/mL aprotinin). Cell-free detergent extracts were centrifuged at 15,000 rpm in a microcentriguge for 30 min at 4° C. and the protein concentrations of the supernatants determined. Aliquots containing 12 μg of protein were separated on 8% SDS-PAGE and were transferred to PVDF filters. The filters were blocked with 5% bovine serum albumin and were probed with pStat3^Y705 antibody followed by secondary antibody, whose signal was detected with an enhanced chemiluminescence kit (ECL, Amersham, Chicago, Ill.). Filters were stripped with stripping buffer (62.5 mM Tris, pH 6.8, 2% SDS, and 0.1 M 2-mercaptoethanol) at 50° C. for 30 min. Filters were then probed with total Stat3 antibody and visualized with chemiluminescence as above.

Akt = assay: EGF-stimulated Akt Ser473 phosphorylation in MDA-MB-468 cells; assay type: cell-based, human; conditions: 1.5 hr prodrug, then EGF 100 ng/mL 30 min
Procedure: as §1

T2 sequence (P40763 whole entry): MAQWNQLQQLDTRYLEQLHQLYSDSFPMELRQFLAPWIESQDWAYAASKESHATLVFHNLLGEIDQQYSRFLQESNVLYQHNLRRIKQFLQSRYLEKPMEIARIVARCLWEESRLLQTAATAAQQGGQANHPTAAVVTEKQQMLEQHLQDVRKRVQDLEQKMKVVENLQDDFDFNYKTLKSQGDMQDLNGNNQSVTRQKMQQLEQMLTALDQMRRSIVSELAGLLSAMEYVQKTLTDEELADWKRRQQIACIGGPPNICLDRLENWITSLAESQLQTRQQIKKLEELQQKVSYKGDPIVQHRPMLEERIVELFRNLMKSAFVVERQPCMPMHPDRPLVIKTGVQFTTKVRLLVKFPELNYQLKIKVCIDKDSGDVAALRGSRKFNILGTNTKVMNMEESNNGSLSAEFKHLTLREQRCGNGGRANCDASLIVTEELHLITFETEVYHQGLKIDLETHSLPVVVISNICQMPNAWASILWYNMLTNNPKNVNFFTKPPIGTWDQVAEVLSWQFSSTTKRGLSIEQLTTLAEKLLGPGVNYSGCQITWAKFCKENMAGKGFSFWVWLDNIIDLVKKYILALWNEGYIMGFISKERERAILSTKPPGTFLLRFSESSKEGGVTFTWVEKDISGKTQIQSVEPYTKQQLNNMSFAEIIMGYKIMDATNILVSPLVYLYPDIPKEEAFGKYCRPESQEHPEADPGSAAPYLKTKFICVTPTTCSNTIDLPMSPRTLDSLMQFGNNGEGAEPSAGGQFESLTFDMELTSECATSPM

inhibition of Stat1 phosphorylation compared with Stat3 phosphorylation (STAT1) | fold less potent at inhibiting STAT1 than STAT3 (STAT1) | EGF-induced increase in Stat3 phosphorylation (STAT3 [2]) | concentration as low as which partial inhibition of STAT3 phosphorylation was seen (STAT3 [3]) | concentration at which complete inhibition of STAT3 phosphorylation occurred (STAT3 [3]) | inhibition of Tyr705 phosphorylation of Stat3 (potency in words) (STAT3 [3]) | Structure (SMILES) | growth / viability of NSCLC cell lines [1] | Akt Ser473 phosphorylation after EGF (Akt)
less effective | about 10 fold | effective at inhibiting | 10 nM | 500 nM | very potent inhibitors | C/C(=C\C(=O)N[C@H]1CCc2cccc3c2N(C1=O)[C@H](C(=O)N[C@H](C)CCC(N)=O)C3)c1ccc(C(F)(F)P(=O)(OCOC(=O)C(C)(C)C)OCOC(=O)C(C)(C)C)cc1 [Example 1, (2E)-3-[4-[[bis[(2,2-dimethyl-1-oxopropoxy)methoxy]phosphinyl]difluoromethyl]phenyl]-but-2-enoyl-Haic-(R)-4-aminopentamide] | inhibition | no effect
less effective | about 10 fold | effective at inhibiting | 10 nM | 500 nM | very potent inhibitors | CCCC[C@H](NC(=O)/C=C(\C)c1ccc(C(F)(F)P(=O)(OCOC(=O)C(C)(C)C)OCOC(=O)C(C)(C)C)cc1)C(=O)N1C[C@H]2CC2[C@H]1C(=O)N[C@@H](CCC(N)=O)[C@@H](C)OCc1ccccc1 (stereo partly drawn) [Example 16, (2E)-3-[4-[[bis[(2,2-dimethyl-1-oxopropoxy)methoxy]phosphinyl]difluoromethyl]phenyl]-but-2-enoyl-norleucinyl-(2S,3R,4S)-methanoprolinyl-(4S,5R)-4-amino-5-benzyloxyhexamide] | inhibition of growth | no effect
